Molecular target: T1, Human recombinant PTP-1B (Homo sapiens, UniProt P18031)
T1 construct: Human recombinant PTP-1B, containing amino acids 1-321, fused to GST enzyme; GST (glutathione S-transferase)
T1 sequence (P18031 1-321): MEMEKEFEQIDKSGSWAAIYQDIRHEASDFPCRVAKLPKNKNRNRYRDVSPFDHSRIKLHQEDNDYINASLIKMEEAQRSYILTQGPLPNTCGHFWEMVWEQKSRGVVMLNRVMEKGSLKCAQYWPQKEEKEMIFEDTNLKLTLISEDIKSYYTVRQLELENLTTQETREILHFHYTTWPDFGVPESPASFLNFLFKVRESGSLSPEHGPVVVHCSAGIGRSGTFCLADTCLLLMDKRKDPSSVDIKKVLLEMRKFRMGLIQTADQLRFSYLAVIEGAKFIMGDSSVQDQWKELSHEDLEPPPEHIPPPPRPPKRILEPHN
Test: Assay for PTP-1B Activity (pNPP substrate)
Type: biochemical
Conditions: human recombinant PTP-1B (1-321) GST fusion, 2 mM pNPP, pH 7.4, 30° C., 20 min; read-out: Activity Code (IC50 range)
Text: The activity of the compounds as modulators of protein tyrosine phosphatase, including PTP-1B, may be measured in standard assays (see, e.g., Examples 41 and 42). Briefly, the assay described herein employs human recombinant PTP-1B and a pNPP substrate in a rescue assay.
Assay for PTP-1B Activity
Enzyme: Human recombinant PTP-1B, containing amino acids 1-321, fused to GST enzyme (glutathione S-transferase) purified by affinity chromatography (Huyer et al, 1997, J. Biol. Chem., 272, 843-852).
pNPP: p-Nitrophenyl Phosphate (Calbiochem)
Assay Buffer: 50 mM HEPES (pH 7.4), 100 mM NaCl, 2 mM EDTA, 3 mM DTT
(5×) pNPP substrate: 10 mM pNPP in assay buffer
Enzyme: 1 mg/ml PTP1B (1-321), dilute 1:200 in assay buffer
Assay buffer: 50 mM HEPES (pH 7.4), 100 mM NaCl, 2 mM EDTA, 3 mM DTT
Enzyme dilution buffer: 50 mM HEPES (pH 7.4), 100 mM NaCl, 2 mM EDTA, 3 mM DTT
Substrate 198 mM p-Nitrophenyl Phosphate (pNPP) store at 4° C.
The assay was carried out at 30° C. in 96 well plates. The reaction mixture in 60 ul contained 50 mM HEPES (pH 7.4), 100 mM NaCl, 2 mM EDTA, 3 mM DTT, and 2 mM p-Nitrophenyl Phosphate (pNPP). 5 ul of the test compound (inhibitor) dissolved in DMSO or DMSO alone for control was added to each well and the plate was mixed for 2 min. The reaction was initiated by adding 20 ul of diluted PTP1B (5 ng/ul in 50 mM HEPES (pH 7.4), 100 mM NaCl, 2 mM EDTA, 3 mM DTT). After 20 min at 30° C., the enzyme reaction was terminated by adding 100 ul of 2 M K2CO3 to each well. The phosphatase activity was detected by using Victor II plate reader (Wallac) with absorbance detection at 405 nm. All the assays were done at least in duplicate. The initial rate of pNP is plotted against the concentration of inhibitor.

With `O=c1n(Cc2ccccc2)cc(-c2ccc(Cl)cc2)n1Cc1ccc(C(F)(F)P(=O)(O)O)c(Br)c1` [Compound 26, ({4-[3-Benzyl-5-(4-chloro-phenyl)-2-oxo-2,3-dihydro-imidazol-1-ylmethyl]-2-bromo-phenyl}-difluoro-methyl)-phosphonic acid] the IC50 was 100 to 249 nM.
For `NC(=O)c1ccc(-c2cn(Cc3ccccc3)c(=O)n2Cc2ccc(C(F)(F)P(=O)(O)O)c(Br)c2)cc1` [Compound 27, ({4-[3-Benzyl-5-(4-carbamoyl-phenyl)-2-oxo-2,3-dihydro-imidazol-1-ylmethyl]-2-bromo-phenyl}-difluoro-methyl)-phosphonic acid], the IC50 was 100 to 249 nM.
With `CNC(=O)c1ccc(-c2cn(Cc3ccccc3)c(=O)n2Cc2ccc(C(F)(F)P(=O)(O)O)c(Br)c2)cc1` [Compound 28, ({4-[3-Benzyl-5-(4-methylcarbamoyl-phenyl)-2-oxo-2,3-dihydro-imidazol-1-ylmethyl]-2-bromo-phenyl}-difluoro-methyl)-phosphonic acid] the IC50 was 250 to 2500 nM.
With `O=c1n(Cc2ccccc2)cc(-c2ccccc2)n1Cc1ccc(C(F)(F)P(=O)(O)O)c(Br)c1` [Compound 29, {[4-(3-Benzyl-2-oxo-5-phenyl-2,3-dihydro-imidazol-1-ylmethyl)-2-bromo-phenyl]-difluoro-methyl}-phosphonic acid] the IC50 was 250 to 2500 nM.
`O=c1n(Cc2ccccc2)cc(-c2ccc3c(c2)OCCO3)n1Cc1ccc(C(F)(F)P(=O)(O)O)c(Br)c1` [Compound 30, ({4-[3-Benzyl-5-(2,3-dihydro-benzo[1,4]dioxin-6-yl)-2-oxo-2,3-dihydro-imidazol-1-ylmethyl]-2-bromo-phenyl}-difluoro-methyl)-phosphonic acid] showed an IC50 of 250 to 2500 nM.
Work on `N#Cc1cccc(-c2cn(Cc3ccccc3)c(=O)n2Cc2ccc(C(F)(F)P(=O)(O)O)c(Br)c2)c1` [Compound 31, ({4-[3-Benzyl-5-(3-cyano-phenyl)-2-oxo-2,3-dihydro-imidazol-1-ylmethyl]-2-bromo-phenyl}-difluoro-methyl)-phosphonic acid] yielded an IC50 of 250 to 2500 nM.
In the case of `CS(=O)(=O)c1ccc(-c2cn(Cc3cccc(N)c3)c(=O)n2Cc2ccc(C(F)(F)P(=O)(O)O)c(Br)c2)cc1` [Compound 32, ({4-[3-(3-Amino-benzyl)-5-(4-methanesulfonyl-phenyl)-2-oxo-2,3-dihydro-imidazol-1-ylmethyl]-2-bromo-phenyl}-difluoro-methyl)-phosphonic acid], the IC50 is reported as less than 99 nM.
For `O=c1n(CC2CC2)cc(-c2ccccc2)n1Cc1ccc(C(F)(F)P(=O)(O)O)c(Br)c1` [Compound 33, {[2-Bromo-4-(3-cyclopropylmethyl-2-oxo-5-phenyl-2,3-dihydro-imidazol-1-ylmethyl)-phenyl]-difluoro-methyl}-phosphonic acid], the IC50 was 250 to 2500 nM.
With `COc1cc(Cn2cc(-c3ccc(C(=O)O)cc3)n(Cc3ccc(C(F)(F)P(=O)(O)O)c(Br)c3)c2=O)cc(OC)c1` [Compound 34, 4-[3-[3-Bromo-4-(difluoro-phosphono-methyl)-benzyl]-1-(3,5-dimethoxy-benzyl)-2-oxo-2,3-dihydro-1H-imidazol-4-yl]-benzoic acid] the IC50 was 250 to 2500 nM.
Compound `O=C(O)c1ccc(-c2cn(C3CC3)c(=O)n2Cc2ccc(C(F)(F)P(=O)(O)O)c(Br)c2)cc1` [Compound 35, 4-{3-[3-Bromo-4-(difluoro-phosphono-methyl)-benzyl]-1-cyclopropyl-2-oxo-2,3-dihydro-1H-imidazol-4-yl}-benzoic acid] has an IC50 of 250 to 2500 nM.
For `O=C(O)c1ccc(-c2cn(Cc3ccccn3)c(=O)n2Cc2ccc(C(F)(F)P(=O)(O)O)c(Br)c2)cc1` [Compound 36, 4-{3-[3-Bromo-4-(difluoro-phosphono-methyl)-benzyl]-2-oxo-1-pyridin-2-ylmethyl-2,3-dihydro-1H-imidazol-4-yl}-benzoic acid], the IC50 was 250 to 2500 nM.
`CCOC(=O)n1cc(-c2ccc(C(=O)OC)cc2)n(Cc2ccc(C(F)(F)P(=O)(O)O)c(Br)c2)c1=O` [Compound 37, 3-[3-Bromo-4-(difluoro-phosphono-methyl)-benzyl]-4-(4-methoxycarbonyl-phenyl)-2-oxo-2,3-dihydro-imidazole-1-carboxylic acid ethyl ester] showed an IC50 of 250 to 2500 nM.

From patent US20080070867A1, “2-Imidazolone and 2-Imidazolidinone Heterocyclic Inhibitors of Tyrosine Phosphatases” (Metabasis Therapeutics, Inc., priority 2005, published 2008)
